# Experimental data reported in patent US11987588B2, “Modulators of the beta-3 adrenergic receptor useful for the treatment or prevention of heart failure and disorders related thereto” (Arena Pharmaceuticals, Inc., priority 2017, dated 2024).
# Biological target: Beta-3 Adrenergic Receptor (Homo sapiens (Human), UniProt P13945)
# Assay: Homogeneous Time-Resolved Fluorescence (HTRF) cAMP antagonist assay, IC50 determination
# Type: cell-based
# Settings: CHO-K1 cells stably expressing recombinant receptor, isoproterenol at EC90
# Summary of the method: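 Antagonist mode: isoproterenol at its predetermined EC90 added after compound to recombinant CHO-K1 cells in IBMX-containing PBS, 1 h, room temperature. Compounds tested as 5-fold, 10-point dilutions, top final typically 10 or 100 μM. HTRF signal converted to cAMP via standard curve, giving IC50.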
# Beta-3 Adrenergic Receptor, sequence (P13945 whole entry, species assumed): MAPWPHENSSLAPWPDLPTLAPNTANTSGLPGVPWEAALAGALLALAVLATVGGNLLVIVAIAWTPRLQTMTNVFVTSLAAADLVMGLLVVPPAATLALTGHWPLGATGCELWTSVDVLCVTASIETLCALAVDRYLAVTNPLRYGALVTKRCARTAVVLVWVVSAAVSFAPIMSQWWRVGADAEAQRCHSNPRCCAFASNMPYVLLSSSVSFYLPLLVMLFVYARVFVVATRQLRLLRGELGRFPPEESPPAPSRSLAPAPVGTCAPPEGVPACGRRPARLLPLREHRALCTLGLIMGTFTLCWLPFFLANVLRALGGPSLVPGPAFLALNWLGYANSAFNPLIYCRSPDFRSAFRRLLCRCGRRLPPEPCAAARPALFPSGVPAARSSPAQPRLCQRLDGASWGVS
row,Compound,IC50 [nM]
1,"CNS(=O)(=O)c1cccc(OC[C@@H](O)CNC2COC3(CCN(S(=O)(=O)c4cccc(-c5cccc(CN(C)C)c5)c4)CC3)C2)c1 (stereo partly drawn) [Compound 105, 3-((2S)-3-(8-(3′-((dimethylamino)methyl)biphenyl-3-ylsulfonyl)-1-oxa-8-azaspiro[4.5]decan-3-ylamino)-2-hydroxypropoxy)-N-methylbenzenesulfonamide]",31.2
2,"CONS(=O)(=O)c1cccc(OC[C@@H](O)CNC2COC3(CCN(S(=O)(=O)c4ccc5ccccc5c4)CC3)C2)c1 (stereo partly drawn) [Compound 11, 3-((2S)-2-hydroxy-3-(8-(naphthalen-2-ylsulfonyl)-1-oxa-8-azaspiro[4.5]decan-3-ylamino)propoxy)-N-methoxybenzenesulfonamide]",15.1
3,"CNS(=O)(=O)c1cccc(OC[C@@H](O)CN[C@H]2COC3(CCN(S(=O)(=O)c4cnc5c(c4)c(Cl)cn5C)CC3)C2)c1 [Compound 513, 3-((S)-3-((R)-8-(3-chloro-1-methyl-1H-pyrrolo[2,3-b]pyridin-5-ylsulfonyl)-1-oxa-8-azaspiro[4.5]decan-3-ylamino)-2-hydroxypropoxy)-N-methylbenzenesulfonamide]",6.36
4,"CCNCc1ccc(-c2cccc(S(=O)(=O)N3CCC4(CC3)CC(NC[C@H](O)COc3cccc(S(=O)(=O)NC)c3)CO4)c2)cc1 (stereo partly drawn) [Compound 302, 3-((2S)-3-(8-(4′-((ethylamino)methyl)biphenyl-3-ylsulfonyl)-1-oxa-8-azaspiro[4.5]decan-3-ylamino)-2-hydroxypropoxy)-N-methylbenzenesulfonamide]",458
5,"CNS(=O)(=O)c1cccc(OC[C@@H](O)CN[C@@H]2COC3(CCN(S(=O)(=O)c4cccc(-c5ccc(CN)cc5)c4OC)CC3)C2)c1 [Compound 448, 3-((S)-3-((S)-8-(4′-(aminomethyl)-2-methoxybiphenyl-3-ylsulfonyl)-1-oxa-8-azaspiro[4.5]decan-3-ylamino)-2-hydroxypropoxy)-N-methylbenzenesulfonamide]",32
6,"COc1ccc(S(=O)(=O)N2CCC3(CC2)CC(NC[C@H](O)COc2cccc(S(=O)(=O)NCCCN(C)C)c2)CO3)cc1C (stereo partly drawn) [Compound 308, N-(3-(dimethylamino)propyl)-3-((2S)-2-hydroxy-3-(8-(4-methoxy-3-methylphenylsulfonyl)-1-oxa-8-azaspiro[4.5]decan-3-ylamino)propoxy)benzenesulfonamide]",1820
7,"CNS(=O)(=O)c1cccc(OC[C@@H](O)CNC2COC3(CCN(S(=O)(=O)c4ccc(C(C)=O)cc4)CC3)C2)c1 (stereo partly drawn) [Compound 25, 3-((2S)-3-(8-(4-acetylphenylsulfonyl)-1-oxa-8-azaspiro[4.5]decan-3-ylamino)-2-hydroxypropoxy)-N-methylbenzenesulfonamide]",26
8,"CCOc1ccc(S(=O)(=O)N2CCC3(CC2)CC(NC[C@H](O)COc2cccc(S(=O)(=O)NC)c2)CO3)cc1 (stereo partly drawn) [Compound 136, 3-((2S)-3-(8-(4-ethoxyphenylsulfonyl)-1-oxa-8-azaspiro[4.5]decan-3-ylamino)-2-hydroxypropoxy)-N-methylbenzenesulfonamide]",23.5
9,"CNS(=O)(=O)c1cccc(OC[C@@H](O)CNC2COC3(CCN(S(=O)(=O)c4ccc5c(Cl)cccc5c4)CC3)C2)c1 (stereo partly drawn) [Compound 223, 3-((2S)-3-(8-(5-chloronaphthalen-2-ylsulfonyl)-1-oxa-8-azaspiro[4.5]decan-3-ylamino)-2-hydroxypropoxy)-N-methylbenzenesulfonamide]",13.6
10,"CNS(=O)(=O)c1cccc(OC[C@@H](O)CNC2COC3(CCN(S(=O)(=O)c4cc(C)cc(-c5ccc(CN)cc5)c4)CC3)C2)c1 (stereo partly drawn) [Compound 373, 3-((2S)-3-(8-(4′-(aminomethyl)-5-methylbiphenyl-3-ylsulfonyl)-1-oxa-8-azaspiro[4.5]decan-3-ylamino)-2-hydroxypropoxy)-N-methylbenzenesulfonamide]",24.4
11,"CNS(=O)(=O)c1cccc(OC[C@@H](O)CNC2COC3(CCN(S(=O)(=O)c4cccc(Oc5ccccc5C(F)(F)F)c4)CC3)C2)c1 (stereo partly drawn) [Compound 170, 3-((2S)-2-hydroxy-3-(8-(3-(2-(trifluoromethyl)phenoxy)phenylsulfonyl)-1-oxa-8-azaspiro[4.5]decan-3-ylamino)propoxy)-N-methylbenzenesulfonamide]",50.6
12,"CNS(=O)(=O)c1cccc(OC[C@@H](O)CNC2COC3(CCN(S(=O)(=O)c4cccc(-c5cncnc5)c4)CC3)C2)c1 (stereo partly drawn) [Compound 104, 3-((2S)-2-hydroxy-3-(8-(3-(pyrimidin-5-yl)phenylsulfonyl)-1-oxa-8-azaspiro[4.5]decan-3-ylamino)propoxy)-N-methylbenzenesulfonamide]",17.3
13,"C[C@H](O)CNS(=O)(=O)c1cccc(OC[C@@H](O)CN[C@H]2COC3(CCN(S(=O)(=O)c4cnc5c(c4)N(C)CCO5)CC3)C2)c1 [Compound 434, 3-((S)-2-hydroxy-3-((R)-8-(1-methyl-2,3-dihydro-1H-pyrido[2,3-b][1,4]oxazin-7-ylsulfonyl)-1-oxa-8-azaspiro[4.5]decan-3-ylamino)propoxy)-N—((S)-2-hydroxypropyl)benzenesulfonamide]",578
14,"CCNS(=O)(=O)c1cccc(OC[C@@H](O)CNC2COC3(CCN(S(=O)(=O)c4cccc(-c5ccc(N)nc5)c4)CC3)C2)c1 (stereo partly drawn) [Compound 212, 3-((2S)-3-(8-(3-(6-aminopyridin-3-yl)phenylsulfonyl)-1-oxa-8-azaspiro[4.5]decan-3-ylamino)-2-hydroxypropoxy)-N-ethylbenzenesulfonamide]",13.6
15,"CNS(=O)(=O)c1cccc(OC[C@@H](O)CN[C@@H]2COC3(CCN(S(=O)(=O)c4cnc5c(c4)N(C)CCO5)CC3)C2)c1 [Compound 413, 3-((S)-2-hydroxy-3-((S)-8-(1-methyl-2,3-dihydro-1H-pyrido[2,3-b][1,4]oxazin-7-ylsulfonyl)-1-oxa-8-azaspiro[4.5]decan-3-ylamino)propoxy)-N-methylbenzenesulfonamide]",14
16,"CNS(=O)(=O)c1cccc(OC[C@@H](O)CNC2COC3(CCN(S(=O)(=O)c4ccc(NCCN)nc4)CC3)C2)c1 (stereo partly drawn) [Compound 429, 3-((2S)-3-(8-(6-(2-aminoethylamino)pyridin-3-ylsulfonyl)-1-oxa-8-azaspiro[4.5]decan-3-ylamino)-2-hydroxypropoxy)-N-methylbenzenesulfonamide]",149

# Further molecules by falling IC50, results first:
row,IC50 [nM],Compound
1,200,"CN(C)S(=O)(=O)c1cccc(OC[C@@H](O)CNC2COC3(CCN(S(=O)(=O)c4cccc(-c5ccc(OCC#N)cc5)c4)CC3)C2)c1 (stereo partly drawn) [Compound 276, 3-((2S)-3-(8-(4′-(cyanomethoxy)biphenyl-3-ylsulfonyl)-1-oxa-8-azaspiro[4.5]decan-3-ylamino)-2-hydroxypropoxy)-N,N-dimethylbenzenesulfonamide]"
2,168,"CNS(=O)(=O)c1cccc(OC[C@@H](O)CNC2COC3(CCN(S(=O)(=O)c4ccc(CO)cc4)CC3)C2)c1 (stereo partly drawn) [Compound 392, 3-((2S)-2-hydroxy-3-(8-(4-(hydroxymethyl)phenylsulfonyl)-1-oxa-8-azaspiro[4.5]decan-3-ylamino)propoxy)-N-methylbenzenesulfonamide]"
3,159,"O=S(=O)(NC(CO)CO)c1cccc(OC[C@@H](O)CNC2COC3(CCN(S(=O)(=O)c4ccc5ccccc5c4)CC3)C2)c1 (stereo partly drawn) [Compound 95, N-(1,3-dihydroxypropan-2-yl)-3-((2S)-2-hydroxy-3-(8-(naphthalen-2-ylsulfonyl)-1-oxa-8-azaspiro[4.5]decan-3-ylamino)propoxy)benzenesulfonamide]"
4,78.6,"NS(=O)(=O)c1cccc(OC[C@@H](O)CN[C@H]2COC3(CCN(S(=O)(=O)c4ccc5ncccc5c4)CC3)C2)c1 [Compound 566, 3-((S)-2-hydroxy-3-((R)-8-(quinolin-6-ylsulfonyl)-1-oxa-8-azaspiro[4.5]decan-3-ylamino)propoxy)benzenesulfonamide]"
5,54.2,"CNS(=O)(=O)c1cccc(OC[C@@H](O)CN[C@H]2COC3(CCN(S(=O)(=O)c4cnc5cc(C)ccc5c4O)CC3)C2)c1 [Compound 538, 3-((S)-2-hydroxy-3-((R)-8-(4-hydroxy-7-methylquinolin-3-ylsulfonyl)-1-oxa-8-azaspiro[4.5]decan-3-ylamino)propoxy)-N-methylbenzenesulfonamide]"
6,31.3,"CCNS(=O)(=O)c1cccc(OC[C@@H](O)CNC2COC3(CCN(S(=O)(=O)c4ccc(Br)c(C)c4)CC3)C2)c1 (stereo partly drawn) [Compound 227, 3-((2S)-3-(8-(4-bromo-3-methylphenylsulfonyl)-1-oxa-8-azaspiro[4.5]decan-3-ylamino)-2-hydroxypropoxy)-N-ethylbenzenesulfonamide]"
7,31.2,"CNS(=O)(=O)c1cccc(OC[C@@H](O)CNC2COC3(CCN(S(=O)(=O)c4cc(-c5ccc(CN)cc5)cc(C(F)(F)F)c4)CC3)C2)c1 (stereo partly drawn) [Compound 367, 3-((2S)-3-(8-(4′-(aminomethyl)-5-(trifluoromethyl)biphenyl-3-ylsulfonyl)-1-oxa-8-azaspiro[4.5]decan-3-ylamino)-2-hydroxypropoxy)-N-methylbenzenesulfonamide]"
8,22.7,"CNS(=O)(=O)c1cccc(OC[C@@H](O)CNC2COC3(CCN(S(=O)(=O)c4cccc(-c5ccsc5)c4)CC3)C2)c1 (stereo partly drawn) [Compound 66, 3-((2S)-2-hydroxy-3-(8-(3-(thiophen-3-yl)phenylsulfonyl)-1-oxa-8-azaspiro[4.5]decan-3-ylamino)propoxy)-N-methylbenzenesulfonamide]"
9,19.6,"CNS(=O)(=O)c1cccc(OC[C@@H](O)CNC2COC3(CCN(S(=O)(=O)c4ccc5occc5c4)CC3)C2)c1 (stereo partly drawn) [Compound 331, 3-((2S)-3-(8-(benzofuran-5-ylsulfonyl)-1-oxa-8-azaspiro[4.5]decan-3-ylamino)-2-hydroxypropoxy)-N-methylbenzenesulfonamide]"
10,17.8,"NS(=O)(=O)c1cccc(OC[C@@H](O)CN[C@H]2COC3(CCN(S(=O)(=O)c4c[nH]c5ccc(F)cc5c4=O)CC3)C2)c1 [Compound 552, 3-((S)-3-((R)-8-(6-fluoro-4-oxo-1,4-dihydroquinolin-3-ylsulfonyl)-1-oxa-8-azaspiro[4.5]decan-3-ylamino)-2-hydroxypropoxy)benzenesulfonamide]"
